Measured values published in ChEMBL document CHEMBL3351465, “Discovery of functionalized bisimidazoles bearing cyclic aliphatic-phenyl motifs as HCV NS5A inhibitors” (Bioorg Med Chem Lett, 2014).
Values after ≈ are worked out from the molar mass of the structure shown.

Columns and labels:
[1] = Inhibition of NS5A in HCV genotype-1a infected in human HuH7 cells by luciferase reporter gene assay; format: cell-based, Hepatitis C virus subtype 1a; details: Hepatitis C virus, Huh-7
[2] = Inhibition of NS5A in HCV genotype-1b infected in human HuH7 cells by luciferase reporter gene assay; format: cell-based, Hepatitis C virus subtype 1b; details: Hepatitis C virus, Huh-7
[3] = Tmax in Sprague-Dawley rat at 10 mg/kg, po; format: ADME, organism-based; set-up: dose 10 mg/kg, route oral; details: in vivo
[4] = Cmax in Sprague-Dawley rat at 10 mg/kg, po; format: ADME, organism-based; set-up: dose 10 mg/kg, route oral; details: in vivo
[5] = AUClast in Sprague-Dawley rat at 10 mg/kg, po; format: ADME, organism-based; set-up: time 0 - last, dose 10 mg/kg, route oral; details: plasma
[6] = Solubility of the compound at pH 7.4 by UV detection method; format: physicochemical; details: buffer

Row | Compound | EC50 [1] [nM] | EC50 [2] [nM] | Tmax [3] [h] | Cmax [4] [ng/mL] | AUC(0-t) [5] [ng·h/mL] | solubility [6] [µg/mL]
1 | COC(=O)N[C@H](C(=O)N[C@@H](C)c1ncc(C2CCN(c3c(F)cc(-c4cnc([C@@H]5CCCN5C(=O)[C@@H](NC(=O)OC)C(C)C)[nH]4)cc3F)CC2)[nH]1)C(C)C | 68 | 0.14 | – | – | – | –
2 | COC(=O)N[C@H](C(=O)N[C@H](c1ncc(C2CCN(c3c(F)cc(-c4cnc([C@@H]5CCCN5C(=O)[C@@H](NC(=O)OC)C(C)C)[nH]4)cc3F)CC2)[nH]1)C(C)C)C(C)C | 25 | 0.07 | – | – | – | –
3 | COC(=O)N[C@@H](C(=O)N1CCOC[C@H]1c1ncc(-c2cc(F)c(N3CCC(c4cnc([C@@H]5CCCN5C(=O)[C@H](NC(=O)OC)c5ccccc5)[nH]4)CC3)c(F)c2)[nH]1)c1ccccc1 | 73 | 0.04 | – | – | – | –
4 | COC(=O)N[C@@H](C)C(=O)N1CCC[C@H]1c1ncc(-c2ccc([C@H]3CC[C@H](c4cnc([C@@H]5CCCN5C(=O)[C@H](C)NC(=O)OC)[nH]4)CC3)cc2)[nH]1 | 7.2 | 0.33 | – | – | – | –
5 | COC(=O)N[C@H](C(=O)N1CCC[C@H]1c1ncc(-c2ccc([C@H]3CC[C@H](c4cnc([C@@H]5CCCN5C(=O)[C@@H](NC(=O)OC)C5CC5)[nH]4)CC3)cc2)[nH]1)C1CC1 | 4.5 | 0.86 | – | – | – | –
6 | CC[C@H](C)[C@H](NC(=O)OC)C(=O)N1CCC[C@H]1c1ncc(-c2ccc([C@H]3CC[C@H](c4cnc([C@@H]5CCCN5C(=O)[C@@H](NC(=O)OC)[C@@H](C)CC)[nH]4)CC3)cc2)[nH]1 | 4.1 | 0.05 | – | – | – | –
7 | COC(=O)N[C@H](C(=O)N1CCC[C@H]1c1ncc(-c2ccc([C@H]3CC[C@H](c4cnc([C@@H]5CCCN5C(=O)[C@@H](NC(=O)OC)[C@@H](C)OC)[nH]4)CC3)cc2)[nH]1)[C@@H](C)OC | 1.4 | 0.19 | – | – | – | –
8 | COC(=O)N[C@H](C(=O)N1CCC[C@H]1c1ncc(-c2ccc([C@H]3CC[C@H](c4cnc([C@@H]5CCCN5C(=O)[C@@H](c5ccccc5)N(C)C)[nH]4)CC3)cc2)[nH]1)C(C)C | 1.7 | 0.14 | – | – | – | –
9 | COC(=O)N[C@H](C(=O)N1CCC[C@H]1c1ncc(-c2ccc([C@H]3CC[C@H](c4cnc([C@@H]5CCCN5C(=O)[C@H](C(C)C)N(C)C)[nH]4)CC3)cc2)[nH]1)C(C)C | > 100 | 0.7 | – | – | – | –

Continued, values first:

Row | EC50 [1] [nM] | EC50 [2] [nM] | Tmax [3] [h] | Cmax [4] [ng/mL] | AUC(0-t) [5] [ng·h/mL] | solubility [6] [µg/mL] | Compound
10 | 39 | 0.27 | – | – | – | – | COC(=O)N[C@H](C(=O)N[C@@H](C)c1ncc(-c2cc(F)c(N3CCC(c4cnc([C@@H]5CCCN5C(=O)[C@@H](NC(=O)OC)C(C)C)[nH]4)CC3)c(F)c2)[nH]1)C(C)C
11 | 1.4 | 0.11 | 1.67 | 54.1 | 255 | – | COC(=O)N[C@@H](C(=O)N1CCC[C@H]1c1ncc(-c2ccc([C@H]3CC[C@H](c4cnc([C@@H]5CCCN5C(=O)[C@@H](c5ccccc5)N(C)C)[nH]4)CC3)cc2)[nH]1)c1ccccc1
12 | 2.6 | 0.05 | – | – | – | – | COC(=O)N[C@H](C(=O)N1CCC[C@H]1c1ncc(-c2ccc([C@H]3CC[C@H](c4cnc([C@@H]5CCCN5C(=O)[C@H](NC(=O)OC)c5ccccc5)[nH]4)CC3)cc2)[nH]1)C(C)C
13 | 4.4 | 0.088 | – | – | – | – | COC(=O)N[C@H](C(=O)N1CCC[C@H]1c1ncc([C@H]2CC[C@H](c3ccc(-c4cnc([C@@H]5CCCN5C(=O)[C@H](NC(=O)OC)c5ccccc5)[nH]4)cc3)CC2)[nH]1)C(C)C
14 | 0.14 | 0.023 | – | – | – | 6.8 (≈ 9.2 µM) | COC(=O)N[C@H](C(=O)N1CCC[C@H]1c1ncc(-c2ccc(-c3ccc(-c4cnc([C@@H]5CCCN5C(=O)[C@@H](NC(=O)OC)C(C)C)[nH]4)cc3)cc2)[nH]1)C(C)C [DACLATASVIR]
